Measurements from patent US20250312327A1, “COMPOSITION FOR COMBINATION THERAPY, COMPRISING 2,3,5-SUBSTITUTED THIOPHENE COMPOUND” (PHAROS IBIO CO., LTD, priority 2021, published 2025).
Like-named read-outs stand apart in the source and are kept apart here. Each block holds one compound with its values, some of them ahead of it.

Tests used:
Assay in all cases: CellTiter-Glo assay, drug administered alone
Type in all cases: cell-based
[1] = system: BDCM leukemia cell line; conditions: 72 h
Protocol: (§1) The first and second tests were performed in triplicate on the above cell lines while reducing the concentration of venetoclax by half each time from 100 μM, and the third test was performed in triplicate on the BDCM cell line while reducing the concentration of venetoclax by half each time from 100 μM, and performed in triplicate on HL-60, MolM13, MolM14, and MV4-11 cell lines while reducing the concentration of venetoclax by half each time from 2.5 μM. The fourth test was performed in triplicate on HL-60, MolM13, MolM14, and MV4-11 cell lines while reducing the concentration by half each time from 2.5 μM.
(§2) Specifically, in the first and second tests, a 10-fold diluted solution was prepared by dissolving 50 μL of 10 mM venetoclax in 450 μL of solvent. 250 μL of the solution was serially diluted ½, an 8E-tube was filled with 250 μL of each dilution, and 80 μL of each cell line was dispensed into each well of a 96-well plate. Thereafter, 10 μL of each cell line was dispensed using JANUS and incubated for 72 hours under CO2. Celltiter-Glo assay was performed and then IC50 was calculated.
(§3) In the third test, for the BCDM cell line, a 10-fold diluted solution was prepared by dissolving 15 μL of 10 mM venetoclax in 135 μL of solvent. 100 μL of the solution was serially diluted ½, an 8E-tube was filled with 100 μL of each dilution, and the cell line was dispensed into a 96-well plate. Thereafter, 25 μL of the cell line was dispensed using JANUS and incubated for 72 hours under CO2. Celltiter-Glo assay was performed and then IC50 was calculated. Meanwhile, for the HL-60, MolM13, MolM14, and MV4-11 cell lines, a 10-fold diluted solution was prepared by dissolving […] of solvent. 200 μL of the solution was serially diluted ½, an 8E-tube was filled with 200 μL of each dilution, and each of the cell lines was dispensed into a 96-well plate. Thereafter, 60 μL of each cell line was dispensed using JANUS and incubated for 72 hours under CO2. Celltiter-Glo assay was performed and then IC50 was calculated.
(§4) The first and second tests were performed in triplicate on the above cell lines while reducing the concentration of 5-azacytidine by half each time from 100 μM. Specifically, in the first and second tests, a 10-fold diluted solution was prepared by dissolving 15 μL of 20 mM 5-azacytidine in 285 μL of solvent. 250 μL of the solution was serially diluted ½, an 8E-tube was filled with 250 μL of each dilution, and 80 μL of each cell line (3,000 cells) was dispensed into each well of a 96-well plate. Thereafter, 10 μL of each cell line was dispensed using JANUS and incubated for 72 hours under CO2. Celltiter-Glo assay was performed and then IC50 was calculated.
as §4, with “cytarabine” for “5-azacytidine”, “50,000” for “100”, “10” for “15”, “50” for “20”, “490” for “285”

[2] = system: HL-60 leukemia cell line; conditions: Homo sapiens
Protocol: as §1, §2, §3
(§5) The fourth test was performed on HL-60, MolM13, MolM14, and MV4-11 cell lines in the same manner as the third test.
as §4
as §4, with “cytarabine” for “5-azacytidine”, “50,000” for “100”, “10” for “15”, “50” for “20”, “490” for “285”

[3] = system: MV4-11 leukemia cell line; conditions: Homo sapiens
Protocol: as §1, §2, §3, §5, §4
as §4, with “cytarabine” for “5-azacytidine”, “50,000” for “100”, “10” for “15”, “50” for “20”, “490” for “285”

[4] = system: MolM13 leukemia cell line; conditions: Homo sapiens
Protocol: as §1, §2, §3, §5, §4
as §4, with “cytarabine” for “5-azacytidine”, “50,000” for “100”, “10” for “15”, “50” for “20”, “490” for “285”

[5] = system: MolM14 leukemia cell line; conditions: Homo sapiens
Protocol: as §1, §2, §3, §5, §4
as §4, with “cytarabine” for “5-azacytidine”, “50,000” for “100”, “10” for “15”, “50” for “20”, “490” for “285”

[6] = system: THP-1 leukemia cell line; conditions: Homo sapiens, THP-1, 72 h
Protocol: as §1, §2, §4
as §4, with “cytarabine” for “5-azacytidine”, “50,000” for “100”, “10” for “15”, “50” for “20”, “490” for “285”

[7] = system: U937 leukemia cell line; conditions: Homo sapiens, U-937, 72 h
Protocol: as §1, §2, §4
as §4, with “cytarabine” for “5-azacytidine”, “50,000” for “100”, “10” for “15”, “50” for “20”, “490” for “285”

[8] = system: BDCM leukemia cell line
[9] = system: HL-60 leukemia cell line; conditions: Homo sapiens; remark: listed apart in the source
[10] = system: THP-1 leukemia cell line; conditions: Homo sapiens
[11] = system: U937 leukemia cell line; conditions: Homo sapiens
[12] = cytarabine alone, read-out: IC50 First test
[13] = cytarabine alone, read-out: IC50 Second test
[14] = cytarabine administered alone, Table 13, read-out: IC50 Cytarabine
[15] = venetoclax alone, read-out: IC50 First test
[16] = venetoclax alone, read-out: IC50 Second test
[17] = venetoclax administered alone, Table 7, read-out: IC50 Venetoclax
[18] = 5-azacytidine alone, read-out: IC50 First test
[19] = 5-azacytidine alone, read-out: IC50 Second test
[20] = azacitidine administered alone, Table 10, read-out: IC50 Azacitidine

IC50 [1, 12]: 2.83 µM
IC50 [1, 13]: 4.48 µM
IC50 ([2]; HL-60, 72 h, cytarabine alone, 72 hours, read-out: IC50 First test): 0.221 µM
IC50 ([2]; HL-60, 72 h, cytarabine alone, 72 hours, read-out: IC50 Second test): 0.163 µM
IC50 [3, 14]: 0.081 µM
IC50 ([3]; cytarabine alone, 72 hours, read-out: IC50 First test): 0.1 µM
IC50 ([3]; cytarabine alone, 72 hours, read-out: IC50 Second test): 0.108 µM
IC50 ([4]; MOLM-13, cytarabine alone, MolM13, 72 hours, read-out: IC50 First test): 0.039 µM
IC50 ([4]; MOLM-13, cytarabine alone, MolM13, 72 hours, read-out: IC50 Second test): 0.0418 µM
IC50 ([4]; cytarabine administered alone, MolM 13, Table 13, read-out: IC50 Cytarabine): 0.0296 µM
IC50 ([5]; MOLM-14, 72 h, cytarabine alone, MolM14, 72 hours, read-out: IC50 First test): 0.099 µM
IC50 ([5]; MOLM-14, 72 h, cytarabine alone, MolM14, 72 hours, read-out: IC50 Second test): 0.0933 µM
IC50 ([5]; MOLM-14, cytarabine administered alone, MolM 14, Table 13, read-out: IC50 Cytarabine): 0.0847 µM
IC50 [6, 12]: 0.0112 µM
IC50 [6, 13]: 0.0153 µM
IC50 [7, 12]: 0.0183 µM
IC50 [7, 13]: 0.0184 µM
IC50 [8, 14]: 2.34 µM
IC50 ([9]; HL-60, cytarabine administered alone, Table 13, read-out: IC50 Cytarabine): 0.17 µM
IC50 ([10]; THP-1, cytarabine administered alone, Table 13, read-out: IC50 Cytarabine): 0.0106 µM
IC50 ([11]; U-937, cytarabine administered alone, Table 13, read-out: IC50 Cytarabine): 0.00925 µM
Compound: Nc1ccn([C@@H]2O[C@H](CO)[C@@H](O)[C@@H]2O)c(=O)n1 [Cytarabine]

IC50 [1, 15]: 12.2 µM
IC50 [1, 16]: 9.86 µM
IC50 ([1]; venetoclax alone, read-out: IC50 Third test): 12.8 µM
IC50 ([2]; HL-60, 72 h, venetoclax alone, 72 hours, read-out: IC50 First test): 0.353 µM
IC50 ([2]; HL-60, 72 h, venetoclax alone, 72 hours, read-out: IC50 Fourth test): 0.276 µM
IC50 ([2]; HL-60, 72 h, venetoclax alone, 72 hours, read-out: IC50 Second test): 0.21 µM
IC50 ([2]; HL-60, 72 h, venetoclax alone, 72 hours, read-out: IC50 Third test): 0.283 µM
IC50 ([2]; HL-60, venetoclax alone, read-out: IC50): ≤ 1 µM
IC50 [3, 17]: 0.0137 µM
IC50 ([3]; venetoclax alone, 72 hours, read-out: IC50 First test): 0.0068 µM
IC50 ([3]; venetoclax alone, 72 hours, read-out: IC50 Fourth test): 0.0141 µM
IC50 ([3]; venetoclax alone, 72 hours, read-out: IC50 Second test): 0.0087 µM
IC50 ([3]; venetoclax alone, 72 hours, read-out: IC50 Third test): 0.0219 µM
IC50 ([3]; venetoclax alone, read-out: IC50): ≤ 1 µM
IC50 ([4]; MOLM-13, venetoclax alone, MolM13, 72 hours, read-out: IC50 First test): 0.0018 µM
IC50 ([4]; MOLM-13, venetoclax alone, MolM13, 72 hours, read-out: IC50 Fourth test): 0.0103 µM
IC50 ([4]; MOLM-13, venetoclax alone, MolM13, 72 hours, read-out: IC50 Second test): 0.0125 µM
IC50 ([4]; MOLM-13, venetoclax alone, MolM13, 72 hours, read-out: IC50 Third test): 0.0086 µM
IC50 ([4]; MOLM-13, venetoclax alone, MolM13, read-out: IC50): ≤ 1 µM
IC50 ([4]; venetoclax administered alone, MolM 13, Table 7, read-out: IC50 Venetoclax): 0.0146 µM
IC50 ([5]; MOLM-14, 72 h, venetoclax alone, MolM14, 72 hours, read-out: IC50 First test): 0.172 µM
IC50 ([5]; MOLM-14, 72 h, venetoclax alone, MolM14, 72 hours, read-out: IC50 Fourth test): 0.219 µM
IC50 ([5]; MOLM-14, 72 h, venetoclax alone, MolM14, 72 hours, read-out: IC50 Second test): 0.415 µM
IC50 ([5]; MOLM-14, 72 h, venetoclax alone, MolM14, 72 hours, read-out: IC50 Third test): 0.147 µM
IC50 ([5]; MOLM-14, venetoclax administered alone, MolM 14, Table 7, read-out: IC50 Venetoclax): 0.283 µM
IC50 ([5]; MOLM-14, venetoclax alone, MolM14, read-out: IC50): ≤ 1 µM
IC50 [6, 15]: 12.5 µM
IC50 [6, 16]: 12.5 µM
IC50 [7, 15]: 7.31 µM
IC50 [7, 16]: 8.32 µM
IC50 [8, 17]: 11 µM
IC50 ([9]; HL-60, venetoclax administered alone, Table 7, read-out: IC50 Venetoclax): 0.275 µM
IC50 ([10]; THP-1, venetoclax administered alone, Table 7, read-out: IC50 Venetoclax): 12.5 µM
IC50 ([11]; U-937, venetoclax administered alone, Table 7, read-out: IC50 Venetoclax): 7.8 µM
Compound: CC1(C)CCC(CN2CCN(c3ccc(C(=O)NS(=O)(=O)c4ccc(NCC5CCOCC5)c([N+](=O)[O-])c4)c(Oc4cnc5[nH]ccc5c4)c3)CC2)=C(c2ccc(Cl)cc2)C1 [Venetoclax]

IC50 [1, 18]: 14.8 µM
IC50 [1, 19]: 23.6 µM
IC50 ([2]; HL-60, 72 h, 5-azacytidine alone, 72 hours, read-out: IC50 First test): 14.7 µM
IC50 ([2]; HL-60, 72 h, 5-azacytidine alone, 72 hours, read-out: IC50 Second test): 13.2 µM
IC50 ([3]; 5-azacytidine alone, 72 hours, read-out: IC50 First test): 3.05 µM
IC50 ([3]; 5-azacytidine alone, 72 hours, read-out: IC50 Second test): 2.45 µM
IC50 [3, 20]: 2.05 µM
IC50 ([4]; MOLM-13, 5-azacytidine alone, MolM13, 72 hours, read-out: IC50 First test): 1.71 µM
IC50 ([4]; MOLM-13, 5-azacytidine alone, MolM13, 72 hours, read-out: IC50 Second test): 1.41 µM
IC50 ([4]; azacitidine administered alone, MolM 13, Table 10, read-out: IC50 Azacitidine): 1.38 µM
IC50 ([5]; MOLM-14, 72 h, 5-azacytidine alone, MolM14, 72 hours, read-out: IC50 First test): 3.88 µM
IC50 ([5]; MOLM-14, 72 h, 5-azacytidine alone, MolM14, 72 hours, read-out: IC50 Second test): 2.82 µM
IC50 ([5]; MOLM-14, azacitidine administered alone, MolM 14, Table 10, read-out: IC50 Azacitidine): 1.59 µM
IC50 [6, 18]: 6.08 µM
IC50 [6, 19]: 6.38 µM
IC50 [7, 18]: 1.91 µM
IC50 [7, 19]: 2.54 µM
IC50 [8, 20]: 98.2 µM
IC50 ([9]; HL-60, azacitidine administered alone, Table 10, read-out: IC50 Azacitidine): 9.66 µM
IC50 ([10]; THP-1, azacitidine administered alone, Table 10, read-out: IC50 Azacitidine): 3.38 µM
IC50 ([11]; U-937, azacitidine administered alone, Table 10, read-out: IC50 Azacitidine): 3.06 µM
Compound: Nc1ncn([C@@H]2O[C@H](CO)[C@@H](O)[C@H]2O)c(=O)n1 [5-azacytidine]
